For assay [1], the target named is T1, calcium sensing receptor as found in the human parathyroid gland (Homo sapiens, UniProt P41180).
T1 construct: expressed in transfected cells; host or cells: HEK 293
T1 sequence (P41180 20-1078): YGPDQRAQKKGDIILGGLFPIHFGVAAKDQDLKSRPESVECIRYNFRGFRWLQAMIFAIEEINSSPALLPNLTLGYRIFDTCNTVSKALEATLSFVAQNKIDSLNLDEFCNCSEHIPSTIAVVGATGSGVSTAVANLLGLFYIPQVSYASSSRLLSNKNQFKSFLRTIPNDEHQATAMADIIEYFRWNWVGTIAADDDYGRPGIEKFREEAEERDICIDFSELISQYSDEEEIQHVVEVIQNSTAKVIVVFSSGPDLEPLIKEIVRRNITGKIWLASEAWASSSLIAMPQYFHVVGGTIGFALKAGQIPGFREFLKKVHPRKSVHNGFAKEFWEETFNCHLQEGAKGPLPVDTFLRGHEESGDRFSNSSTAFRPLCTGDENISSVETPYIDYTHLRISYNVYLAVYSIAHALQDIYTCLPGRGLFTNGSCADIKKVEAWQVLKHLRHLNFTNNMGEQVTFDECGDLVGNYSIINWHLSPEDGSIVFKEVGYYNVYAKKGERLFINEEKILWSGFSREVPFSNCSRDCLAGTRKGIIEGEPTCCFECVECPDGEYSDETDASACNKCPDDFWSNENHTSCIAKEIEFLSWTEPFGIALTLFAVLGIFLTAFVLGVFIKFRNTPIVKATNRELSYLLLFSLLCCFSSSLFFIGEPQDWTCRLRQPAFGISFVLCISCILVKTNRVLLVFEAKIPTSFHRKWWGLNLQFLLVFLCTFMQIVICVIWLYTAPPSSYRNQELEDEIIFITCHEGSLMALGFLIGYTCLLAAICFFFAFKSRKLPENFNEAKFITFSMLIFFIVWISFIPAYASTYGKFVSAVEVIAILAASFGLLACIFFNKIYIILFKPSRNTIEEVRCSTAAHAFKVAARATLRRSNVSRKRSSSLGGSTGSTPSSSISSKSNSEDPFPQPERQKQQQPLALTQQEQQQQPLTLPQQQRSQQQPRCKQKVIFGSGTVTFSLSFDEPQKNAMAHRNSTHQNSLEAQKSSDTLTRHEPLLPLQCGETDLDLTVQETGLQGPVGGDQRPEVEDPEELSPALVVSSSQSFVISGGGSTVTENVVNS
As to the kind of experiment: calcium mobilization fluorescence (FLIPR) assay, agonist mode. To be noted: transfected HEK 293 cells; 1 mM calcium standard; Tables 2-7; read-out: In Vitro: CS50, where potency is at 50% of the calcium standard potency. It counts as cell-based. As for the experimental part: (§1) In vitro potency is measured via calcium mobilization in a fluorescence assay using HEK 293 cells transfected to express the same calcium sensing receptor as found in the human parathyroid gland. In this assay calcium-sensing receptor agonists and antagonists are detected. The assay is conducted in a 96-well plate format with the use of FLIPR (fluorescent imaging plate reader; Molecular Devices, Sunnyvale, Calif.). The HEK 293 cell media is replaced with the fluorescence dye FLUO-3AM and Pluronic detergent in FLIPR assay buffer. Cells are incubated 60 min (in the dark, at room temperature), then washed with assay buffer and placed in FLIPR. Images are collected by FLIPR in the absence of test compound, then in the presence of test compound (at 25 µM) and then after addition of a calcium challenge (at 1 mM). In the agonist assay the difference between maximum and minimum fluorescence values is measured following test compound addition. Hits have a change in fluorescence greater than or equal to 50% of that seen with a 1 mM calcium standard. In the antagonist assay the difference between maximum and minimum fluorescence values is measured following the calcium challenge addition. When compared to challenge in the absence of test compound, hits reduce fluorescence by at least 50%. In vivo activity is measured via parathyroid hormone (PTH) supression by test compounds in a rat model. Compound is administered orally using 0.5% Tween 80 in distilled water as vehicle, with a volume of approximately 10 mL/kg body weight. Blood samples are taken at 15 minutes (and 4 h if required) post oral dosing. Serum PTH levels are determined with an immunoradiometric assay.
(§2) Not all compounds were tested in each of the screens. […] Each entry represents a mixture of cis and trans cyclopropanes (R,S; S,R; R,R; S,S) with R absolute configuration when R^3=CH3. Table 2 lists compounds that are trans at the cyclopropane (R,R; S,S) with R absolute configuration at the benzylamine position, or without stereochemistry at the benzylamine. Table 3 lists compounds with R,R absolute stereochemistry at the cyclopropane and a mixture of stereochemistry at the benzylamine position. 20. In vitro data in Table 1 is percent activation of the calcium-sensing receptor versus baseline. In vitro data in Tables 2-7 is expressed as a CS50, where potency is at 50% of the calcium standard potency, and the unit is μM. In vivo data represents % blood serum PTH vs. vehicle at 30 mg/kg test compound, levels measured after 15 minutes.
(In general: Calcium assays in cells follow changes in intracellular calcium, usually with a dye or a luminescent sensor.)

Assay [2] has as its system parathyroid hormone (PTH). Put plainly: parathyroid hormone (PTH) suppression in a rat model. It counts as in vivo. The note with it: 30 mg/kg test compound, levels measured after 15 minutes; for change in vivo at 30 mg/kg: Rattus norvegicus, po, 0.25 h, read-out: In Vivo: % blood serum PTH vs. vehicle; for In Vivo: % blood serum PTH vs. vehicle: oral, 30 mg/kg. The protocol: as §1, §2

Turning to `COc1cccc([C@@H](C)N(C[C@@H]2C[C@H]2c2ccccc2)C(=O)OCC(C)C)c1` [Compound 57], in assay [1], the EC50 was over 25 µM. In assay [2], the change in vivo at 30 mg/kg was -5.3%.
The like results for `c1ccc([C@@H]2C[C@H]2CNCc2cccnc2)cc1` (relative stereo) [Compound 29] were, in that order, over 25 µM and 87.8%.
For the compound `COc1cccc([C@@H](C)NCC2CC2c2cc(C)ccc2C)c1` (stereo partly drawn) [Compound 33], in assay [1], the EC50 was over 25 µM. Besides, the “In Vivo: % blood serum PTH vs. vehicle” value in assay [2] is listed as -47.6%.
As to `COc1cccc([C@@H](C)NCC2CC2c2ccccc2C)c1` (stereo partly drawn) [Compound 12], the EC50 in assay [1] came out at 8.8 µM. For the same compound, in assay [2], the change in vivo at 30 mg/kg was -95.8%.
For `CC(NC[C@@H]1C[C@H]1c1ccccc1)c1ccc2c(c1)OCO2` (stereo partly drawn) [Compound 47] the same measures were over 25 µM and -67.3%.
`COc1cccc([C@H](C)NC[C@@H]2C[C@@H]2c2ccccc2)c1` [Compound 66]: the EC50 in assay [1] is over 25 µM. Also, the change in vivo at 30 mg/kg in assay [2] was -61.8%.
The like results for `COc1cccc([C@@H](C)N(C[C@@H]2C[C@H]2c2ccccc2)C(=O)CNC(=O)OC(C)(C)C)c1` [Compound 58] were, in that order, over 25 µM and -12.7%.
For the compound `CCC(=O)N(C[C@@H]1C[C@H]1c1ccccc1)[C@H](C)c1cccc(OC)c1` [Compound 54], in assay [1], the EC50 was over 25 µM. Moreover, the change in vivo at 30 mg/kg in assay [2] is -33.7%.
The like results for `COc1cccc([C@@H](C)NC[C@H]2C[C@H]2c2cc(C)ccc2C)c1` [Compound 69] were, in that order, over 25 µM and -53.9%.
For `COc1cccc([C@@H](C)NC[C@H]2C[C@H]2c2ccccc2)c1` [Compound 62] the same measures were 17.6 µM and 0%.
On to `COC(=O)N(C[C@@H]1C[C@H]1c1ccccc1)[C@H](C)c1cccc(OC)c1` [Compound 56], for which the EC50 in assay [1] was over 25 µM. Besides, in assay [2], the change in vivo at 30 mg/kg was -40.9%.
Regarding `COc1cccc([C@@H](C)NCC2CC2c2ccccc2F)c1` (single isomer, unassigned) [Compound 19], the EC50 in assay [1] came to 9.6 µM. Also, the “In Vivo: % blood serum PTH vs. vehicle” value in assay [2] was -89.2%.
On to `COc1cccc([C@@H](C)NC[C@@H]2C[C@H]2c2cccc(F)c2)c1` [Compound 22], for which the EC50 in assay [1] turned out to be 9.3 µM. Moreover, in assay [2], the “In Vivo: % blood serum PTH vs. vehicle” value is -93.4%.
Take `COc1cccc(C(C)(C)NC[C@@H]2C[C@H]2c2ccccc2)c1` [Compound 44]: the EC50 in assay [1] was over 25 µM. Also, in assay [2], the change in vivo at 30 mg/kg is -25.8%.
For `COc1cccc([C@@H](C)NCC2CC2c2ccccc2F)c1` (stereo partly drawn) [Compound 17] the same measures were 5 µM and -94.8%.
For the compound `COc1cccc([C@H](C)NC[C@@H]2C[C@H]2c2ccccc2)c1` [Compound 63], in assay [1], the EC50 is over 25 µM. Also, the change in vivo at 30 mg/kg in assay [2] was -40.1%.
On to `Cc1cccc(C(C)NC[C@@H]2C[C@H]2c2ccccc2)c1` (stereo partly drawn) [Compound 40], for which, in assay [1], the EC50 is over 25 µM. Moreover, the change in vivo at 30 mg/kg in assay [2] was -51.2%.
For `COc1cccc([C@@H](C)NC[C@@H]2C[C@@H]2c2cc(C)ccc2C)c1` [Compound 70] the same measures were 21 µM and -24.7%.
For `COc1cccc([C@@H](C)NCC2CC2c2ccccc2F)c1` (single isomer, unassigned) [Compound 18], in assay [1], the EC50 turned out to be 11.3 µM. Besides, in assay [2], the “In Vivo: % blood serum PTH vs. vehicle” value is -83.9%.
Regarding `CC(NC[C@@H]1C[C@H]1c1ccccc1)c1cccc(Cl)c1` (stereo partly drawn) [Compound 46, N-((R,R)-2-phenylcyclopropanylmethyl)-1-(3-chlorophenyl)ethylamine], the EC50 in assay [1] was over 25 µM. Moreover, the change in vivo at 30 mg/kg in assay [2] is -15.9%.
For `COc1cccc([C@@H](C)NC[C@@H]2C[C@H]2c2cccc(F)c2)c1` (mixture of isomers) [Compound 20, N-(trans-2-(3-fluorophenyl)cyclopropanylmethyl)-1-(R)-(3-methoxyphenyl)ethylamine], the EC50 in assay [1] came to 11 µM. Besides, in assay [2], the “In Vivo: % blood serum PTH vs. vehicle” value is reported as -95.2%.
For `C[C@@H](NC[C@@H]1C[C@H]1c1ccccc1)c1cccc(O)c1` [Compound 48], in assay [1], the EC50 came to 8.7 µM. Moreover, the change in vivo at 30 mg/kg in assay [2] was -41.7%.
For `COc1cccc([C@@H](C)NCC2C(C)C2c2ccccc2)c1` (stereo partly drawn) [Compound 67] the same measures were 10.1 µM and -92.9%.
For `COc1cccc([C@H](C)NC[C@H]2C[C@H]2c2ccccc2)c1` [Compound 65] the same measures were over 25 µM and -38.8%.
For `COc1cccc([C@@H](C)NCC2CC2c2cccc(C(F)(F)F)c2)c1` (stereo partly drawn) [Compound 15] the same measures were 13.5 µM and 4.2%.
On to `COc1cccc([C@@H](C)NCC2CC2(C)c2ccccc2)c1` (stereo partly drawn) [Compound 68], for which, in assay [1], the EC50 is over 25 µM. Further, the change in vivo at 30 mg/kg in assay [2] was -94.5%.
With `COc1cccc([C@@H](C)NCC2CC2c2ccccc2C(F)(F)F)c1` (stereo partly drawn) [Compound 14], in assay [1], the EC50 is 52.2 µM. In assay [2], the change in vivo at 30 mg/kg is -34.7%.
For `c1ccc([C@@H]2C[C@H]2CNCc2ccccn2)cc1` (relative stereo) [Compound 28] the same measures were over 25 µM and 72%.
The like results for `COc1cccc([C@@H](C)NC[C@@H]2C[C@@H]2c2ccccc2)c1` [Compound 61] were, in that order, 11.2 µM and 0%.
Take `COc1cccc([C@@H](C)NCC2CC2c2cccc(C)c2)c1` (stereo partly drawn) [Compound 13]: the EC50 in assay [1] was determined as 9.5 µM. In assay [2], the change in vivo at 30 mg/kg is -98.2%.

For the origin of these results see patent publication US6172091A, “1,2-Disubstituted cyclopropanes” (Ortho-McNeil Pharmaceutical, Inc., priority 1999, dated 2001).
